Measurements as given in paper PMC12040169 (PLOS Biology, 2025).

Assay: in vitro
Settings: human, hela cells, % viability

| Structure (SMILES) | viability at 28.5 h, 10 µM [%] |
| --- | --- |
| CC(C)Cc1nnc(-c2ccccc2Cl)n1CC1CC1 [CBK200097] | 98.1 |
| c1cncc(COc2cncc(OC3CCNC3)n2)c1 (stereo not drawn) [CBK077419T] | 94.3 |
| N#CCCNS(=O)(=O)c1ccc(OC(F)(F)F)cc1 [CBK043560] | 97.9 |
| OC12CCCON1OC(c1ccccc1)C2 (stereo not drawn) [CBK006752] | 111 |
| c1cnc2cc(Oc3ccc4nccnc4c3)ccc2n1 [CBK267266] | 99.4 |
| CNC(=O)C1(Cc2ccc(-c3ccccc3)cc2)CCN(C(=O)C2CCCCC2)CC1 [CBK285762] | 113 |
| CCCn1ncnc1C(C)NC(=O)Nc1ccnn1CC(C)C (stereo not drawn) [CBK307545] | 116 |
| CN(C)CCN(C)C(=O)c1ccc(-c2cccc(C(=O)NCCO)c2)nc1NCC1CC1 [CBK076603] | 94 |
| O=C(NC(c1ccc(Cl)cc1)c1cnccn1)C1CCN(C(=O)N2CCOCC2)CC1 (stereo not drawn) [CBK059635] | 96.7 |
| CC(=O)NC1(CC(=O)N2CC[C@H]3NC(=O)COc4ccccc4C/C=C/C[C@H]3C2)CCCCC1 [CBK292117] | 91.3 |
| NC(=O)C1CCN(C(=O)CSc2nc3ccccc3s2)CC1 [CBK293953] | 95.2 |
| COC1CCCC(C(=O)N2CCC(c3onc4c3CCC4)CC2)C1 (stereo not drawn) [CBK285519] | 103 |
| Fc1ccc2c3c([nH]c2c1)C1(CCN(Cc2cc(F)c(F)c(F)c2)CC1)NCC3 [CBK039688] | 108 |
| CN(Cc1ccco1)C(=O)NC1CCCc2c1cnn2CCO (stereo not drawn) [CBK306290] | 108 |
| CC(Sc1nc(-c2ccccc2F)n[nH]1)C(=O)N1CCNC1=O (stereo not drawn) [CBK295594] | 106 |
| Cc1nnc(SCC(=O)N/N=C/c2coc3ccccc3c2=O)n1-c1ccccc1 [CBK262842] | 90.3 |
| CC(C)NC(=O)N1CCc2sccc2C1c1ccc(Cl)cc1 (stereo not drawn) [CBK018247] | 108 |
| O=C(O)CCc1c(-c2ccccc2)cc2ccccn12 [CBK266308] | 109 |
| O=C(CCCc1ccccc1)Nc1ccccc1C(=O)O [CBK265516] | 97.4 |
| Cc1ccc(Nc2nc(N3CCOCC3)nc3nccnc23)cc1 [CBK287664] | 120 |
| O=C(CN1CCN(c2ccc(C(F)(F)F)cn2)CC1)c1ccccc1 [CBK074699] | 111 |

| Structure (SMILES) | viability at 28.5 h, 10 µM [%] |
| --- | --- |
| O=C1CCC(=O)N1CCOc1nccnc1OC1CCN(Cc2ccccc2F)CC1 [CBK084337] | 96.4 |
| COc1ccc(Br)cc1/C=N/Nc1nc(NCc2ccccc2)nc(N2CCOCC2)n1 [CBK261232] | 92.9 |
| Cc1noc(C)c1CCC(=O)N1CC[C@H]2NC(=O)c3ccccc3OCCCCC[C@H]2C1 [CBK292036] | 96.5 |
| CC(C)N(CCC(c1ccccc1)c1cc(Br)ccc1OCc1ccccc1)C(C)C (stereo not drawn) [CBK017656] | 79.4 |
| O=S(=O)(Cc1ccccc1)Nc1nccnc1-c1cccs1 [CBK050766] | 91.3 |
| CCc1ccc2[nH]c(=O)c(CN(CCN(C)C)C(=S)NCc3ccccc3)cc2c1 [CBK134905] | 98.4 |
| O=C(O)CCc1ccc(-c2ccc(F)cc2)n1CCc1ccccc1 [CBK265936] | 108 |
| COC(=O)c1ccc(NS(=O)(=O)Cc2ccccc2)cc1 [CBK028699] | 91.4 |
| O=C(COc1ccccc1)NCc1ccc(OC2CCNCC2)cc1 [CBK028425T] | 98.2 |
| Cc1ccccc1NC(=O)c1cnc2n(c1=O)CCS2 [CBK287374] | 110 |
| CCOC(=O)c1cccc(NS(=O)(=O)c2ccc(NC(C)=O)cc2)c1 [CBK034349] | 78.8 |
| CC(=C\C(=O)O)/C(=C\c1ccc(Br)cc1)C(=O)O [CBK278280N] | 88.1 |
| OCc1ccnc2ccccc12 [CBK001746] | 87.4 |
| C[C@H](NC1=NC(=O)[C@@](C)(C(C)(C)O)S1)c1ccc(F)cc1 [CBK138436] | 98.1 |
| COc1ccc(-c2nc(C3CCNCC3)n3ccccc23)cc1 [CBK035971] | 92.9 |
| O[C@H]1[C@H](NCc2ccco2)[C@H]2CO[C@H](O2)[C@@H]1N1CCC(Cc2ccccc2)CC1 [CBK288815] | 99.1 |
| CC(C)(C)c1ccc(NC(=O)N2CCCN(Cc3ccccc3)CC2)cc1 [CBK085876] | 116 |
| c1ccc(CN2CCC(N3CCC(N4CCc5ccccc5C4)CC3)CC2)cc1 [CBK264730G] | 91 |
| CC(C)OC(=O)c1nnn(-c2nonc2N)c1CN1CCCCCC1 [CBK027601] | 94 |
| O=C(NCc1ccccc1OC1CCNC1)c1cnccn1 (stereo not drawn) [CBK029462T] | 101 |
| O=C(Cc1ccc(F)cc1)N1CCCC(c2cc3ncccc3[nH]2)C1 (stereo not drawn) [CBK283414] | 109 |

| Structure (SMILES) | viability at 28.5 h, 10 µM [%] |
| --- | --- |
| Cc1cc(C)c2c(c1)COC1(CCN(Cc3ccccc3)CC1)O2 [CBK061572] | 102 |
| Cc1cc(NC(=O)CC2CC2)c2ccccc2n1 [CBK116257] | 98.6 |
| O=C(N[C@H]1CCN2C(=O)c3cc(-c4cccs4)ccc3NC(=O)[C@H]12)c1cnccn1 [CBK289337] | 116 |
| O=C(CC1(O)C(=O)N(Cc2ccccc2)c2ccccc21)c1cc2ccccc2oc1=O (stereo not drawn) [CBK293963] | 106 |
| CN1C2C=C(N(CCc3ccccc3)C(=O)c3ccc(-c4ccccc4)cc3)CC1CC2 (stereo not drawn) [CBK262596C] | 104 |
| COc1cccc(-c2csc(N3CCN(C(=O)Nc4ccccc4)CC3)n2)c1 [CBK070275] | 95.4 |
| COc1ccc(Br)cc1S(=O)(=O)Nc1ccsc1C(=O)Nc1ccc(F)cc1 [CBK004593] | 97.7 |
| Cc1ccc(NC2=N[C@H]3[C@@H](O)[C@H](O)C[C@H](C(=O)N4CCCCC4)[C@H]3S2)cc1 [CBK288951] | 94.7 |
| O=S(=O)(NCc1ccccn1)c1ccc(Br)cc1Br [CBK262291] | 93.2 |
| COC[C@@H]1OC[C@@]2(C)C3CC[C@@H](O)[C@@H](CC(=O)N4CCCCC4)[C@]3(C)CC[C@H]2O1 (stereo partly drawn) [CBK289573] | 88.3 |
| NS(=O)(=O)c1ccc(CCNC(=O)c2ccc(C#CC3(O)CCCCC3)cc2)cc1 [CBK263104] | 93.9 |
| CC(=O)Nc1ccc([C@@H](O)[C@H]2COCC(=O)N2C)cc1 [CBK289059] | 97.7 |
| CCN1CCN(C(=O)c2ccc3ccccc3n2)CC1 [CBK200249] | 133 |
| COC(=O)C(CC(=O)c1ccc(Br)cc1)n1cccn1 (stereo not drawn) [CBK269338] | 104 |
| O=C(O)c1ccccc1NS(=O)(=O)c1cccc2cccnc12 [CBK042358] | 56.7 |
| Cc1ccc(C(=O)C2=C(O)C(=O)N(CCO)C2c2ccccc2[N+](=O)[O-])cc1 (stereo not drawn) [CBK263822] | 97.1 |
| COc1ccc(-c2cnc3[nH]c(=O)n(CCN4CCOCC4)c3n2)cc1 [CBK064782] | 103 |
| S=c1[nH]nc(CSc2nc3ccccc3[nH]2)n1-c1ccccc1 [CBK267133] | 87.3 |
| CN1CCN(c2ccccc2NC(=O)c2cccc(OCc3ccccc3)c2)CC1 [CBK268345] | 102 |
| Cc1nn(C)cc1CN1CCCC(c2cc3ccccc3cn2)C1 (stereo not drawn) [CBK285041] | 108 |
| Cc1c(C(=O)N2CCC[C@H]2[C@H](O)c2nccs2)oc2ccccc12 [CBK284281] | 100 |

| Structure (SMILES) | viability at 28.5 h, 10 µM [%] |
| --- | --- |
| O=[N+]([O-])c1ccc(OC(CNS(=O)(=O)c2ccc(Cl)cc2)c2ccccc2)cc1 (stereo not drawn) [CBK262817] | 93 |
| COc1ccc(CCNC(=O)CN2CCCCC2C)cc1 (stereo not drawn) [CBK304827] | 94.4 |
| O=C1NC2(CCN(C(=O)Cc3ccc(-c4ccccc4)cc3)CC2)Nc2ccccc21 [CBK286309] | 101 |
| COc1coc(CN2C(=O)COc3cccnc32)cc1=O [CBK307126] | 96.7 |
| COc1ccc(C)cc1NC(=O)CCN1CCN(C)CC1 [CBK264216] | 102 |
| CC(=O)NCC(=O)Nc1cnc(-c2cccc(C(F)(F)F)c2)c(-c2cccnc2)n1 [CBK036809] | 103 |
| Cc1ccc2oc([C@H]3CN(C(=O)C4CCN(C(=O)OC(C)(C)C)CC4)C[C@@H]3C(=O)O)cc2c1 [CBK001601] | 90.7 |
| COC(=O)C1C2CCN(CC2)C1SCc1cccc(C(F)(F)F)c1 (stereo not drawn) [CBK010829C] | 87.1 |
| Cn1c(CN2CCN(S(C)(=O)=O)CC2)nc2cc([N+](=O)[O-])ccc21 [CBK268362] | 98.4 |
| Cc1nn(CCC#N)c2nc(-c3ccc(F)cc3)cc(C(=O)O)c12 [CBK296974] | 94.7 |
| Cn1c(N2CC[C@H](O)C2)nc2cc(C(=O)NCCC3CCCC3)ccc21 [CBK307447] | 87.9 |
| O=C(O)C1CC=CCC1C(=O)NCCCCc1ccccc1 (stereo not drawn) [CBK265460] | 98.7 |
| Cc1cccc(OCC(=O)Nc2sc3c(c2C(N)=O)CCC3)c1C [CBK269729] | 94.8 |
| O=C(O)CSc1nc(Nc2ccccc2)nc(N2CCOCC2)n1 [CBK269023] | 107 |
| COc1cc(OC)c(S(=O)(=O)N2CCOCC2)cc1S(=O)(=O)N1CCOCC1 [CBK267564] | 98.1 |
| O=C1COc2ccccc2C/C=C/C[C@H]2CN(C(=O)CN3CCCCCC3=O)CC[C@H]2N1 [CBK292116] | 89.7 |
| O=C(Nc1cccc2[nH]ccc12)c1ccoc1 [CBK159659] | 94.8 |
| Cc1nc2ccc(C(=O)NC(C)(C)CN3CCCC(C)C3)cc2[nH]1 (stereo not drawn) [CBK282629] | 85.3 |
| Cc1cc(C)c2c(c1)-c1c(ssc1=S)C(C)(C)N2C(=O)CSc1nnc[nH]1 [CBK263038] | 88.5 |
| CCNC(=S)N[C@H]1CC[C@@]2(Cc3ccccc3Cl)CCN(C)[C@H]2C1 [CBK003708] | 92 |
| Cc1cc(Br)ccc1OCC(=O)O/N=C(\N)Cc1ccc([N+](=O)[O-])cc1 [CBK265095] | 99.8 |

Same assay, conditions: human, hela cells, % viability, bulk resorufin, single well

| Structure (SMILES) | viability at 28.5 h, 10 µM [%] |
| --- | --- |
| CC(C)(C)OC(=O)N1CCC2(CC1)OCc1cc(-c3cccc(C(=O)NCc4ccc(Cl)cc4)c3)ccc1O2 [CBK107834] | 93.3 |
| CN1C(=O)N(C)C(=O)C(Cc2ccccn2)(Cc2ccccn2)C1=O [CBK269577] | 97.5 |
| CC1=CC(C)C(COC(N)=O)(COC(N)=O)C(C)C1 (stereo not drawn) [CBK020974] | 93.7 |
